Reference: publication PMC4326489, “Efficacy and pharmacokinetic evaluation of a novel anti-malarial compound (NP046) in a mouse model” (Malaria Journal, 2015)

Experiments:
[1] = Non-specific binding to the micro-partition device (ultrafiltration); format: in vitro ADME; conditions: PBS pH 7.4
Protocol: PPB (plasma protein binding), the extent to which a drug binds to protein in plasma, can affect the PK-PD properties of a drug. Thus, determining the PPB property of a drug in the early stage of drug development process is crucial and a prerequisite for lead prioritization. Initially the PPB assay was performed using an ultrafiltration method [see Additional file 3], which depends on centrifugal force to move the unbound analyte of interest through a size-selective membrane. Ultrafiltration is recommended for the determination of PPB property if the non-specific binding (NSB) of the test drug to the micro-partition device is less than 5%. If NSB > 5%, an alternative technique such as equilibrium dialysis or ultracentrifugation should be used.
Procedure for the determination of nonspecific binding by Ultrafiltration (procedure was adopted from Dow, 2002; with a slight modification).
0.01 M PBS, pH 7.4, was prepared by dissolving 4 g of NaCl, 0.1 g of KCl, 0.722 g of Na2HPO4, and 0.12 g of KH2PO4 with water to a final volume of 500 ml.
Primary stock solutions of TK900D, TK900E, and NP046 at 100 µg/ml; and secondary stock solutions at 1 µg/ml in methanol were prepared. […]
The ultrafiltrate were extracted and analysed quantitatively using the validated LC-MS/MS bioanalytical drug assay methods specified in Chapters 8 and 9.
The %NSB were calculated using the equation: […]

[2] = Metabolic stability in mouse liver microsomes; format: in vitro ADME; conditions: 0-60 minutes, read-out: in vitro intrinsic clearance
Protocol: Metabolism is an enzymatic process in which a drug is chemically modified into polar metabolites that can be more readily excreted from the body. Metabolism occurs mainly in the liver, and the intestine. The metabolic stability of NP046 was determined in human and mouse liver microsomes using a multiple-time-point method at 0, 5, 10, 30, and 60 minutes [for the methodology see Additional file 5].
Summary of the assay method for the determination of microsomal stability:
The assay method was adopted from Obach, 1999, Giuliano et al., 2005, and Naritomi et al., 2001, with a slight modification.
The liver microsome (human and mouse) was thawed at 37 °C, and diluted to 0.4 mg/ml in a preheated (at 37 °C) 0.1 M phosphate buffer.
The primary stock solutions (10 mM) of the controls and test compounds were diluted as follows: first in DMSO to obtain 400 µM solutions followed by dilution in phosphate buffer to 40 µM, and were vortex mixed well by vortexing at each step of dilution.
A reaction premix (in triplicate for each control and test compound) were prepared by mixing 15 µl of the 40 µM solution with 530 µl of 0.4 mg/ml microsome mixture in a premix plate, and mixed carefully using a plate shaker. […]
The intrinsic clearance (ml/min/kg) was calculated using the equation (Obach et al., 1997): […]

Q: With `Oc1cc(CCCc2ccc(F)cc2)ccc1CN1CCCCC1` [NP046, 5-(3-(4-fluorophenyl)propyl)-2-(piperidin-1-ylmethyl)phenol] as the compound, how does the “NSB (non-specific binding to the micro-partition device)” value [1] read?
A: > 5%

Q: What about the microsomal CLint at 0.99 µM [2] of the same compound?
A: 657 µL/min/mg
